For this assay, the target named is T1, transketolase (TK) (Zea mays, UniProt Q7SIC9).
T1 sequence (Q7SIC9 1-675): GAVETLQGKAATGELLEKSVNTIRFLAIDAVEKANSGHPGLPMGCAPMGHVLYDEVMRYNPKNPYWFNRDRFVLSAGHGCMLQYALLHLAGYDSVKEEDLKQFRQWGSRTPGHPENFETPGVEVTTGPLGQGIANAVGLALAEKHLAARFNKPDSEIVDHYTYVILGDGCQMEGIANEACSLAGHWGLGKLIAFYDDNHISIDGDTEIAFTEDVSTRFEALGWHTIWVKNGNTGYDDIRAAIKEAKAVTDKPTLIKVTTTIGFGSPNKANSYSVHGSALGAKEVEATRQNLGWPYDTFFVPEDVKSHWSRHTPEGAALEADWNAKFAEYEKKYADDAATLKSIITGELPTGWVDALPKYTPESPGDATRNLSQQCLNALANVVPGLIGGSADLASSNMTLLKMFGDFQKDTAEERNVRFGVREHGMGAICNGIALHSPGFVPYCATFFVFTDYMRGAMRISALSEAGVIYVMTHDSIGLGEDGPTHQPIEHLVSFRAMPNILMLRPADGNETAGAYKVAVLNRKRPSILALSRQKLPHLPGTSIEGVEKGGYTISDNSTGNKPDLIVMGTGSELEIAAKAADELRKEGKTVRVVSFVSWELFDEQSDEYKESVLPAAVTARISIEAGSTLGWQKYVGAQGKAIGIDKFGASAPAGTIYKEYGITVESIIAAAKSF
Kind of assay: in vitro dose-response enzymatic activity assay. Format: biochemical. The following applies: read-out: enzymatic assay / IC50.

The values below come from article PMC7614749 (Chemistry (Weinheim an der Bergstrasse, Germany), 2023).

In the case of `C/C=C1/CC2=C(C(=O)OC2=O)[C@H](CCC)[C@H](O)C(=O)C[C@@H]1O` [compound 6, cornexistin], the IC50 was 50 ± 5 µM.
